Test results as given in patent US11407788B2, “Prostate-specific membrane antigen (PSMA) targeting peptides” (THE CURATORS OF THE UNIVERSITY OF MISSOURI, priority 2016, dated 2022).

Experiments:
[1] = test system: PSMA-positive prostate cancer C4-2 cell line; assay: Apparent Kd of FAM-labeled peptides by flow cytometry in C4-2 cells; type: cell-based
LNCaP cells = assay: Competitive inhibition of peptides and their corresponding phages; conditions: for competitive inhibition of peptide to its corresponding phage: peptides at 100 μM
Method: Competitive binding inhibition between selected phages and their encoded peptides was examined in this study. […] The bound phages were recovered and titered as described above.
It was first evaluated whether these phages bind to LNCaP cells via specific interaction with their encoding peptides. LNCaP cells were pre-incubated with the encoding peptides, followed by washing and incubation with the corresponding phages. The bound phages were then eluted and titered.

[2] = test system: PSMA-positive LNCaP cells; assay: Apparent Kd of FAM-labeled peptides by flow cytometry in LNCaP cells; type: cell-based; conditions: 4° C., 1 h
PSMA = PSMA (Homo sapiens, UniProt Q04609); conditions: Aggarwal et al. 2006; read-out: IC50 of inhibition of PSMA enzymatic activity; cited from earlier work
PSMA, sequence (Q04609 whole entry): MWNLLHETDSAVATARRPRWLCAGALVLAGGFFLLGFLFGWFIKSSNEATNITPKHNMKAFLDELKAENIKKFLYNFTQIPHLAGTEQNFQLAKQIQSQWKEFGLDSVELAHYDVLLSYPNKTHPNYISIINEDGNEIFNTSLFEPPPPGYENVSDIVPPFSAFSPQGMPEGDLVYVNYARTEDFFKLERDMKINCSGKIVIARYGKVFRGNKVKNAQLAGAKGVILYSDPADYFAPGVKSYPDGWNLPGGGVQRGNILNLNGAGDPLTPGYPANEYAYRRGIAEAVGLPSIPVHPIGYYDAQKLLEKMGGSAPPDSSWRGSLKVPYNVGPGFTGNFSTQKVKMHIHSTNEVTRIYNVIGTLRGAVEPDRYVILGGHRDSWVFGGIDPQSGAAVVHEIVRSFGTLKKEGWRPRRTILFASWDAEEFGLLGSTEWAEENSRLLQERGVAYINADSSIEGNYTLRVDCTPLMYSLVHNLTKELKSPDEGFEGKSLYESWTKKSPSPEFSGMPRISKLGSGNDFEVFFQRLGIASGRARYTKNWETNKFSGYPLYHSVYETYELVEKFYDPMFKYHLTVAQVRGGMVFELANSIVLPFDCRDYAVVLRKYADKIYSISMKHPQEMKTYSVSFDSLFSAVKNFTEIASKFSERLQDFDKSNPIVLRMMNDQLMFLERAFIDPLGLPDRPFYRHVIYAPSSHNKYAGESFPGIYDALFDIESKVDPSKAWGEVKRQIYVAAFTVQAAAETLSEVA

HSDNHYRPADKL
affinity to C4-2 cells compared to LNCaP cells [1]: less affinity | competitive inhibition of peptide to its corresponding phage (LNCaP cells): negligible

KYLAYPDSVHIW
Kd [2]: 14.4 µM

NRPDSAQFWLHH
competitive inhibition of peptide to its corresponding phage (LNCaP cells): negligible | competitive inhibition of peptide to its corresponding phage at various concentrations (LNCaP cells; series of concentrations): does not affect the binding

QPGHAILAQHPT
competitive inhibition of peptide to its corresponding phage (LNCaP cells): negligible

SMAGEQISWALI
competitive inhibition of peptide to its corresponding phage (LNCaP cells): negligible

TGHLYPTRMEIQ
affinity to C4-2 cells compared to LNCaP cells [1]: less affinity | competitive inhibition of peptide to its corresponding phage (LNCaP cells): relatively weaker competitive inhibition

WQPDTAHHWATL
Kd [2]: 23.6 µM | IC50 (PSMA): 23 µM

YPTDWLWHGHNK
competitive inhibition of peptide to its corresponding phage (LNCaP cells): negligible

YVNSHSILGYTG
competitive inhibition of peptide to its corresponding phage (LNCaP cells): relatively weaker competitive inhibition
